From ChEMBL document CHEMBL3879901, “Substituted isoquinolin-1(2H)-ones, and methods of use thereof” (2012)

What was measured:
[1] = molecular target: PI3-kinase p110-delta/p85-alpha (Homo sapiens, UniProt O00329); test: Inhibition of N-terminal His6-tagged recombinant full-length human p110delta/untagged recombinant full length p85alpha expressed in baculovirus infected Sf21 cells using phosphatidylinositol as substrate in presence of gamma-32P-ATP after 5 mins by thin layer chromatographic method
Chain of PI3-kinase p110-delta/p85-alpha (P27986 whole entry): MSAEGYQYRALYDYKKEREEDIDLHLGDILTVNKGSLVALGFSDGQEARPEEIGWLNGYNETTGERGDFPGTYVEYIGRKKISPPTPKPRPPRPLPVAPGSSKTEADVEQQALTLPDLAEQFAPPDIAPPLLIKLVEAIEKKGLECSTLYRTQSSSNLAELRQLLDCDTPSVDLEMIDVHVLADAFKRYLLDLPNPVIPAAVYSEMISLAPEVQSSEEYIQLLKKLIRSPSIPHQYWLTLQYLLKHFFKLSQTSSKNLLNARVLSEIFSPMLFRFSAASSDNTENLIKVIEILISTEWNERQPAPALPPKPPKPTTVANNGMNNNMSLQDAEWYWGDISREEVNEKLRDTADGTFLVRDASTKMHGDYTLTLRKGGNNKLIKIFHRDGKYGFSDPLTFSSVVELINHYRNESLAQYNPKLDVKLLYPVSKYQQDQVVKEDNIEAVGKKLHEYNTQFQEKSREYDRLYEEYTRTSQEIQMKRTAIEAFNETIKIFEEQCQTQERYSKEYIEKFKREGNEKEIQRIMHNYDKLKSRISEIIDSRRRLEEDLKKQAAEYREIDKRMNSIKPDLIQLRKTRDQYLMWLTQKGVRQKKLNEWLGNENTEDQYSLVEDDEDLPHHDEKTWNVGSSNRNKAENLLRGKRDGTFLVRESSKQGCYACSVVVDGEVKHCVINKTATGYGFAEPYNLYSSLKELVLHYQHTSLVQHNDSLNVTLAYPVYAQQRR
Chain of PI3-kinase p110-delta/p85-alpha (O00329 whole entry): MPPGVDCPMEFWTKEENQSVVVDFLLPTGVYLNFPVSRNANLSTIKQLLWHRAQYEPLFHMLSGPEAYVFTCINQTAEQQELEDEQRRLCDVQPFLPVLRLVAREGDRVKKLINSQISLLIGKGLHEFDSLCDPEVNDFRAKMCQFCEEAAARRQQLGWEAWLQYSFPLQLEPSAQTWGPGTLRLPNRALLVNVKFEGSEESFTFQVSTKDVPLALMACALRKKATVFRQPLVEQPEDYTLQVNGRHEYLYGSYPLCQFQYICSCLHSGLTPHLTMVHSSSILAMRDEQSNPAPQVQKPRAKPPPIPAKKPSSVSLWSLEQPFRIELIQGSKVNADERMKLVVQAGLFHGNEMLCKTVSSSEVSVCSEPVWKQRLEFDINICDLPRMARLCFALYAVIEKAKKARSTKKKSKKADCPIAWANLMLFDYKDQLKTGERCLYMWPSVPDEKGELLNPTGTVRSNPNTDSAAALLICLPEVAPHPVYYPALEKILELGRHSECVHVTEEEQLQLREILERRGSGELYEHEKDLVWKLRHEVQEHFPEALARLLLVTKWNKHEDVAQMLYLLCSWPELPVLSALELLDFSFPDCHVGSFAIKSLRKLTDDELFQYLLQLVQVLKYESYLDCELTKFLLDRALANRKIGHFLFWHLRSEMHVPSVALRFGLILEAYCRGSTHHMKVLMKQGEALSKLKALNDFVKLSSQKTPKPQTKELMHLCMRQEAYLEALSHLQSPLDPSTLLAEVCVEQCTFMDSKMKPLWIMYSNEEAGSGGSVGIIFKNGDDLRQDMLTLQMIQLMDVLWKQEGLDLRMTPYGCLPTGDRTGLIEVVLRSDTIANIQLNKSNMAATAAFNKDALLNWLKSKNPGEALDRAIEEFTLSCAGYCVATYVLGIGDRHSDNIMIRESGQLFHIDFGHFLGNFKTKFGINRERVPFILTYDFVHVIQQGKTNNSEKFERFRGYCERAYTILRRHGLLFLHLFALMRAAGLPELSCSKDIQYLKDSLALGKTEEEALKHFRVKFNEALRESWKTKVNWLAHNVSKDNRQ

[2] = Antiproliferative activity against Balb/c mouse splenic B cells preincubated for 30 mins followed by LPS or F(ab')2 donkey anti-mouse IgM and recombinant mouse IL4 stimulation measured after 72 hrs by Alamar Blue reduction assay; assay type: functional, cell-based

Row | Compound | IC50 [1] | EC50 [2]
1 | Cc1cccc2cc(C(C)Nc3ncnc4[nH]cnc34)n(C3CCN(C)CC3)c(=O)c12 (centres undefined) | < 100 nM | < 100 nM
2 | Cc1cccc2cc([C@H](C)Nc3nc(N)ncc3F)n(-c3ccccc3)c(=O)c12 | < 100 nM | 
3 | Cc1cccc2cc(C(C)Nc3ncnc4[nH]cnc34)n(CCN3CCOCC3)c(=O)c12 (centres undefined) | < 100 nM | < 100 nM
4 | CCC(Nc1ncnc2[nH]cnc12)c1cc2ccccc2c(=O)n1-c1ccccc1 (centres undefined) | < 100 nM | < 100 nM
5 | Nc1ncnc2c1c(I)nn2Cc1cc2cccc(Cl)c2c(=O)n1C1CC1 | < 100 nM | < 100 nM
6 | CCC(Nc1ncnc2[nH]cnc12)c1cc2cccc(C)c2c(=O)n1C1CCC1 (centres undefined) | < 100 nM | < 1000 nM
7 | Cc1cccc2cc(C(C)Nc3ncnc4[nH]cnc34)n(C3CC3)c(=O)c12 (centres undefined) |  | < 100 nM
8 | Cc1cccc2cc(C(C)Nc3ncnc4[nH]cnc34)n(C3CCOCC3)c(=O)c12 (centres undefined) | < 100 nM | < 100 nM
9 | Cc1cccc2cc(C(C)Nc3ncnc4[nH]cnc34)n(-c3cc(F)cc(F)c3)c(=O)c12 (centres undefined) | < 100 nM | < 100 nM
10 | Cc1cccc2cc(C(C)Nc3ncnc4[nH]cnc34)n(C(C)C)c(=O)c12 (centres undefined) | < 100 nM | < 100 nM
11 | CCC(Nc1ncnc2[nH]cnc12)c1cc2cccc(C)c2c(=O)n1C1CCN(C)CC1 (centres undefined) |  | < 100 nM
12 | Cc1cccc2cc(C(C)Nc3ncnc4[nH]cnc34)n(CCN3CCCC3)c(=O)c12 (centres undefined) | < 100 nM | < 100 nM
13 | C[C@H](Nc1ncnc2nc[nH]c12)c1cc2cccc(Cl)c2c(=O)n1-c1ccccc1 [DUVELISIB] |  | < 100 nM
14 | Cc1cccc2cc([C@H](C)Nc3nc(Cl)ncc3Cl)n(-c3ccccc3)c(=O)c12 |  | < 100 nM
15 | Cc1cccc2cc(C(C)Nc3ncnc4[nH]cnc34)n(-c3ccccc3)c(=O)c12 (centres undefined) |  | < 100 nM
16 | CC(C)n1c(Cn2nc(-c3cccc(O)c3)c3c(N)ncnc32)cc2cccc(F)c2c1=O |  | < 1000 nM
17 | CC(Nc1ncnc2[nH]cnc12)c1cc2cccc(Cl)c2c(=O)n1-c1ccccc1 (centres undefined) |  | < 100 nM
18 | Cc1cccc2cc([C@H](C)Nc3ncnc4ccccc34)n(-c3ccccc3)c(=O)c12 | < 100 nM | 

Row | Compound | IC50 [1] | EC50 [2]
19 | CCC(Nc1ncnc2[nH]cnc12)c1cc2cccc(C)c2c(=O)n1-c1ccccc1C (centres undefined) | < 100 nM | < 100 nM
20 | Cc1cccc2cc([C@@H](C)Nc3ncnc4[nH]cnc34)n(C3CC3)c(=O)c12 |  | > 10000 nM
21 | Cc1ccccc1-n1c(Cn2nc(C(=O)NO)c3c(N)ncnc32)cc2cccc(C)c2c1=O |  | < 100 nM
22 | COc1ccc(-c2nn(Cc3cc4cccc(C)c4c(=O)n3-c3ccccc3F)c3ncnc(N)c23)cc1 |  | < 1000 nM
23 | CCC(Nc1ncnc2[nH]cnc12)c1cc2cccc(C)c2c(=O)n1-c1cc(F)cc(F)c1 (centres undefined) | < 100 nM | < 100 nM
24 | CCC(Nc1ncnc2[nH]cnc12)c1cc2cccc(C)c2c(=O)n1C(C)C (centres undefined) | < 100 nM | < 100 nM
25 | CC(Nc1ncnc2[nH]cnc12)c1cc2ccccc2c(=O)n1-c1ccccc1 (centres undefined) | < 100 nM | < 100 nM
26 | Cc1cccc2cc([C@@H](C)Nc3ncnc4[nH]cnc34)n(C3CCC3)c(=O)c12 |  | < 10000 nM
27 | Cc1ccccc1-n1c(Cn2nc(C(N)=O)c3c(N)ncnc32)cc2cccc(C)c2c1=O |  | < 100 nM
28 | Cc1cccc2cc(C(C)Nc3ncnc4[nH]cnc34)n(C3CCC3)c(=O)c12 (centres undefined) | < 100 nM | < 100 nM
29 | Cc1cccc2cc([C@H](C)Nc3ncnc4[nH]nc(Cl)c34)n(C3CC3)c(=O)c12 | < 100 nM | 
30 | Cc1cccc2cc(C(C)Nc3ncnc4[nH]cnc34)n(-c3c(F)cccc3F)c(=O)c12 (centres undefined) | < 100 nM | < 100 nM
31 | Nc1ncnc2c1c(-c1ccc(Cl)c(O)c1)nn2Cc1cc2cccc(I)c2c(=O)n1C1CCCC1 |  | < 10000 nM
32 | Cc1cccc(C)c1-n1c(CNc2ncnc3[nH]cnc23)cc2cccc(C)c2c1=O | < 100 nM | 
33 | Nc1ncnc2c1c(I)nn2Cc1cc2cccc(I)c2c(=O)n1C1CCCC1 |  | < 10000 nM
34 | CC(C)n1c(Cn2nc(I)c3c(N)ncnc32)cc2cccc(F)c2c1=O | < 10000 nM | 
35 | Cc1cccc2cc([C@H](C)Nc3nc(N)ncc3Cl)n(C3CC3)c(=O)c12 | < 100 nM | 
36 | Cc1cccc2cc([C@@H](C)Nc3ncnc4[nH]cnc34)n(-c3ccccc3)c(=O)c12 |  | < 1000 nM

Second part, led by results:

Row | IC50 [1] | Compound | EC50 [2]
37 | < 100 nM | Cc1cccc2cc(Cn3nc(-c4cn[nH]c4)c4c(N)ncnc43)n(-c3ccccc3)c(=O)c12 | < 100 nM
38 | < 100 nM | CC(C)n1c(Cn2nc(-c3cccc(O)c3)c3c(N)ncnc32)cc2cccc(Cl)c2c1=O | < 100 nM
39 | < 100 nM | Cc1cccc2cc(Cn3nc(C(F)F)c4c(N)ncnc43)n(-c3ccccc3)c(=O)c12 | < 100 nM
40 | < 100 nM | CCc1nn(Cc2cc3cccc(C)c3c(=O)n2-c2ccccc2)c2ncnc(N)c12 | < 100 nM
41 | < 100 nM | Cc1cccc2cc(Cn3nc(-c4cn[nH]c4)c4c(N)ncnc43)n(-c3ccccc3C(F)(F)F)c(=O)c12 | < 100 nM
42 | < 100 nM | Cc1cccc2cc(Cn3nc(-c4cccc(O)c4)c4c(N)ncnc43)n(C)c(=O)c12 | < 1000 nM
43 | < 100 nM | C=Cc1nn(Cc2cc3cccc(C)c3c(=O)n2-c2ccccc2)c2ncnc(N)c12 | < 100 nM
44 | < 100 nM | Cc1ccccc1-n1c(Cn2nc(-c3cc(O)cc(F)c3)c3c(N)ncnc32)cc2ccccc2c1=O | < 100 nM
45 | < 100 nM | CCc1nn(Cc2cc3cccc(C)c3c(=O)n2-c2ccccc2C)c2ncnc(N)c12 | < 1000 nM
46 | < 100 nM | Cc1ccccc1-n1c(Cn2nc(CC#N)c3c(N)ncnc32)cc2cccc(C)c2c1=O | < 1000 nM
47 | < 100 nM | Cc1cccc2cc(Cn3nc(-c4cc(O)cc(F)c4)c4c(N)ncnc43)n(C3CCOCC3)c(=O)c12 | < 100 nM
48 | < 10000 nM | Cc1ccccc1-n1c(Cn2nc(-c3ccc(CN)cc3)c3c(N)ncnc32)cc2cccc(C)c2c1=O | 
49 | < 100 nM | Cc1cccc2cc(Cn3nc(-c4ccc(Cl)c(O)c4)c4c(N)ncnc43)n(C(C)C)c(=O)c12 | < 100 nM
50 | < 1000 nM | Nc1ncnc2c1c(-c1cccc(O)c1)nn2Cc1cc2cccc(F)c2c(=O)n1-c1ccccc1F | 
51 | < 100 nM | CC(C)n1c(Cn2nc(-c3cc(O)cc(F)c3)c3c(N)ncnc32)cc2cccc(F)c2c1=O | < 100 nM
52 | < 100 nM | Cc1cccc2cc(Cn3nc(-c4cc(O)cc(F)c4)c4c(N)ncnc43)n(C)c(=O)c12 | < 100 nM
53 | < 10000 nM | CNC(=O)c1cccc(-c2nn(Cc3cc4cccc(C)c4c(=O)n3-c3ccccc3C)c3ncnc(N)c23)c1 | 
54 | < 10000 nM | Nc1ncnc2c1c(I)nn2Cc1cc2cccc(F)c2c(=O)n1-c1ccccc1F | 
55 | < 100 nM | CCn1c(Cn2nc(-c3cccc(O)c3)c3c(N)ncnc32)cc2cccc(C)c2c1=O | < 100 nM
56 | < 100 nM | Nc1ncnc2c1c(-c1cccc(O)c1)nn2Cc1cc2cccc(Cl)c2c(=O)n1C1CC1 | < 100 nM
57 | < 100 nM | C=C(C)c1nn(Cc2cc3cccc(C)c3c(=O)n2-c2ccccc2)c2ncnc(N)c12 | 
58 | < 100 nM | CC(C)n1c(Cn2nc(-c3cc(O)cc(F)c3)c3c(N)ncnc32)cc2ccccc2c1=O | < 100 nM
59 | < 100 nM | Cc1ccccc1-n1c(Cn2nc(-c3cccc(O)c3)c3c(N)nccc32)cc2cccc(C)c2c1=O | < 1000 nM
60 | < 100 nM | Nc1ncnc2c1c(-c1cc(O)cc(F)c1)nn2Cc1cc2cccc(F)c2c(=O)n1-c1ccccc1F | < 100 nM
